Reference: publication PMC7179167 (Molecules, 2020)
Converted amounts (≈) assume the structure as drawn. Read-outs that look alike come from different tables or passages of the source.

Assays:
[1] = system: normal skin fibroblast cells (BJ-1); experiment: MTT cytotoxicity assay, normal skin fibroblast BJ-1; type: cell-based; details: Homo sapiens, 48 h, read-out: Growth Inhibition (%) BJ-1
[2] = system: MCF-7 (human breast cancer); experiment: MTT cytotoxicity assay, MCF-7; type: cell-based; details: for inhibition at 100 µg/mL: MCF7, 100 µg/ml, 48 h, read-out: Growth Inhibition (%) MCF-7; for IC50: MCF7, 48 h post-treatment
Method: (§1) MCF-7 (human breast cancer), HCT-116 (human colon cancer) and HepG2 (human liver cancer) cell lines were obtained from Karolinska Institute, Stockholm, Sweden. All cells were maintained in RPMI 1640 medium. The media were supplemented with 10% heat-inactivated fetal bovine serum plus 1% antibiotic-antimycoticmixture (10,000 U/mL of potassium penicillin, 10,000 μg/mL of streptomycin sulfate, 25 μg/mL of amphotericin B and 1% of L glutamine (Biowest, USA)). BJ-1 of a human skin fibroblast derived from normal foreskin was obtained from ATCC® CRL-2522™ as a frozen ampoule with about 1 × 10^6 cells per 1 ml volume. BJ-1 was maintained in MEM with 2 mM of L-glutamine and Earle’s salts medium.
(§2) Cell viability was studied using the MTT 3-(4,5-dimethylthiazol-2-yl)-2,5-diphenyl-tetrazolium bromide (Bio Basic Canada Inc. Toronto, Canada) assay [33]. The steps were executed in a sterile laminar air flow cabinet biosafety class II level (Baker, SG403INT; Sanford, ME, USA). All incubations were carried out at 37 °C in a 5% CO2 incubator under a humidified atmosphere of 95% (Sheldon, TC2323; Cornelius, OR, USA). Cells were seeded into 96-well microtiter plastic plates at a concentration of (10^4 cells/well) and allowed to adhere for 24 h. The medium was aspirated and then added to the cells with the test compounds 11a–c, 12a–c, 13a–i, 14a–i and 15a,b at a single dose of 100 μg/mL in DMSO. After incubation of the medium for 48 h, 40 μL of MTT salt (2.5 μg/mL) was added to each well and then incubated for an additional 4 h. To stop the reaction and dissolve any formed formazan crystals, 200 μL of 10% sodium dodecyl sulfate (SDS) were added to each well and incubated overnight at 37 °C. The amount of formazan product was measured at 595 nm with a reference wavelength of 690 nm as a background using a microplate reader (Bio-Rad Laboratories, model 3350, California, USA). For the untreated cells (negative control), the medium was added instead of the tested compounds. […] Dimethylsulfoxide (DMSO) was the vehicle used for dissolution of the testing compound, and its final concentration on the cells was less than 0.2%. At the same dilution, the solvent concentration was the same for all drugs and between the control and drug treatments.

[3] = DPPH free radical scavenging assay; type: biochemical; details: concentration of 20µg/l, mean ± SD of three experiments
Method: Antioxidant activity of the newly synthesized 13a–i, 14a–i, 11a–c and 12a–c were assessed in terms of hydrogen-donating or radical-scavenging ability via the stable free radical 1,1-diphenyl-2-picrylhydrazyl (DPPH) using ascorbic acid as a reference at a concentration of […].
The free radical scavenging activity (RSA) was assessed spectrophotometically at 517 nm via decoloration of the solution of the DPPH (1,1-diphenyl-2-picrylhydrazyl) radical according to Brand-Williams et al. 1995 [32]. DPPH solution was prepared by dissolving of 20 mg of DPPH in one liter of dimethylsulphoxide (DMSO). A freshly prepared DPPH solution was used for the assay. Each of the tested compounds 11a–c, 12a–c, 13a–i, 14a–i and 15a,b were dissolved in DMSO (1mg/mL). A volume of […] of a DMSO stock solution of the test compounds was added to 2 mL of freshly prepared DPPH in DMSO solution. The mixtures were shaken in a vortex (2500 rpm) for 1 min and then left to stand for 15, 30, 45 and 60 min in the dark room. The absorbance was measured at 517 nm against blank using UV visible spectrophotometer 2401 PC (Shimadzu, Kyoto, Japan). Lower absorbance of the reaction mixture indicated higher free radical scavenging activity was analyzed from the graph plots of the inhibition percentage against the compound concentration. The experiment was carried out in triplicate and averaged. The scavenging activity was calculated according to the following formula:Scavenging ability (%) = (A517 of control - A517of sample / A 517 of control) ×100(1)

[4] = system: HCT-116 (human colon cancer); experiment: MTT cytotoxicity assay, HCT-116; type: cell-based; details: Homo sapiens; for inhibition at 100 µg/mL: HCT-116, 100 µg/ml, 48 h, read-out: Growth Inhibition (%) HCT-116; for IC50: HCT-116, 48 h, 48 h post-treatment
Method: as §1, §2

[5] = system: HepG-2 (human liver cancer); experiment: MTT cytotoxicity assay, HepG-2; type: cell-based; details: for inhibition at 100 µg/mL: HepG2, 100 µg/ml, 48 h, read-out: Growth Inhibition (%) HepG-2; for IC50: HepG2, 48 h post-treatment
Method: as §1, §2

[6] = 15 min, read-out: Scavenging Activity (%) on DPPH radicals at 15 min
[7] = 30 min, read-out: Scavenging Activity (%) on DPPH radicals at 30 min
[8] = 45 min, read-out: Scavenging Activity (%) on DPPH radicals at 45 min
[9] = 60 min, read-out: Scavenging Activity (%) on DPPH radicals at 60 min

| SMILES | inhibition at 100 µg/mL [1] [%] | inhibition at 100 µg/mL [2] [%] | IC50 [2] [µg/mL] | inhibition [3, 6] [%] | inhibition [3, 7] [%] | inhibition [3, 8] [%] | inhibition [3, 9] [%] | melting point [°C] | inhibition at 100 µg/mL [4] [%] | IC50 [4] [µg/mL] | inhibition at 100 µg/mL [5] [%] | IC50 [5] [µg/mL] |
| --- | --- | --- | --- | --- | --- | --- | --- | --- | --- | --- | --- | --- |
| CCn1cc(C2=NN(c3ccccc3)C3(C2)C(=O)Nc2ccccc23)c2ccccc21 (stereo not shown) [Compound 14b, 5’-(N-Ethyl-1H-indol-3-yl)-2’-phenyl-2’,4’-dihydrospiro(indoline-3,3’-pyrazol)-2-one] | 8.1 | 80.3 | 36.3 (≈ 89.3 µM) | 42.4 ± 1.45 | 58.1 ± 1.28 | 60.3 ± 1.66 | 66 ± 1.64 | 108 to 110 | 84.6 | 40.1 (≈ 98.6 µM) | – | – |
| O=C(c1ccccc1Cl)n1cc(C2=NNC3(C2)C(=O)Nc2ccccc23)c2ccccc21 (stereo not shown) [Compound 13e, 5’-(N-(2-Chloro-benzoyl)-1H-indol-3-yl)-2’,4’-dihydrospiro(indoline-3,3’-pyrazol)-2-one] | 10.3 | 96.4 | 31.9 (≈ 72.4 µM) | 9.1 ± 1.38 | 26.1 ± 1.26 | 36.7 ± 1.62 | 48.1 ± 1.82 | 219 to 221 | 90.4 | 35.4 (≈ 80.3 µM) | 79.8 | 67.1 (≈ 152 µM) |
| O=C1Nc2ccccc2C12CC(c1cn(S(=O)(=O)c3ccc(Br)cc3)c3ccccc13)=NN2c1ccccc1 (stereo not shown) [Compound 14g, 5’-(N-(4-Bromo-benzenesulfonyl)-1H-indol-3-yl)-2’-phenyl-2’,4’-dihydrospiro(indoline-3,3’-pyrazol)-2-one] | 16 | 90.6 | 37.4 (≈ 62.6 µM) | 8.39 ± 1.14 | 11.9 ± 1.23 | 14.1 ± 2.01 | 26.6 ± 2.13 | 132 to 134 | 92.1 | 38 (≈ 63.6 µM) | – | – |
| O=C1Nc2ccccc2C12CC(c1cn(S(=O)(=O)c3ccc(Cl)cc3)c3ccccc13)=NN2c1ccccc1 (stereo not shown) [Compound 14h, 5’-(N-(4-Chloro-benzenesulfonyl)-1H-indol-3-yl)-2’-phenyl-2’,4’-dihydrospiro(indoline-3,3’-pyrazol)-2-one] | 86.5 | 94 | – | 57.9 ± 1.36 | 67.3 ± 1.35 | 72 ± 1.82 | 86 ± 2.17 | 110 to 112 | 96.2 | – | – | – |
| O=C(c1ccc(Cl)cc1)n1cc(C2=NNC3(C2)C(=O)Nc2ccccc23)c2ccccc21 (stereo not shown) [Compound 13f, 5’-(N-(4-Chloro-benzoyl)-1H-indol-3-yl)-2’,4’-dihydrospiro(indoline-3,3’-pyrazol)-2-one] | 16.4 | 79.7 | 32.1 (≈ 72.8 µM) | 17.9 ± 1.62 | 28.3 ± 1.61 | 34.3 ± 1.27 | 40.7 ± 1.54 | 202 to 204 | 86.5 | 28.4 (≈ 64.4 µM) | 72.8 | 83.6 (≈ 190 µM) |
| O=C(c1ccc(Cl)cc1)n1cc(C2=NN(c3ccccc3)C3(C2)C(=O)Nc2ccccc23)c2ccccc21 (stereo not shown) [Compound 14f, 5’-(N-(4-Chlorobenzoyl)-1H-indol-3-yl)-2’-phenyl-2’,4’-dihydrospiro(indoline-3,3’-pyrazol)-2-one] | 14.5 | 89.3 | 31.2 (≈ 60.3 µM) | 9.05 ± 1.63 | 10.2 ± 1.83 | 16.2 ± 1.21 | 22.9 ± 1.62 | 162 to 164 | 91.4 | 35.8 (≈ 69.2 µM) | – | – |
| O=C1Nc2ccccc2C12CC(c1cn(S(=O)(=O)c3ccccc3[N+](=O)[O-])c3ccccc13)=NN2 (stereo not shown) [Compound 13i, 5’-(N-(2-Nitro-benzensulfonyl)-1H-indol-3-yl)-2’,4’-dihydrospiro (indoline-3,3’-pyrazol)-2-one] | 69.4 | 97.8 | – | – | – | – | – | 210 to 212 | 97.7 | – | 96.8 | – |
| O=C(c1ccccc1Cl)n1cc(C2=NN(c3ccccc3)C3(C2)C(=O)Nc2ccccc23)c2ccccc21 (stereo not shown) [Compound 14e, 5’-(N-(2-Chlorobenzoyl)-1H-indol-3-yl)-2’-phenyl-2’,4’-dihydrospiro(indoline-3,3’-pyrazol)-2-one] | 16.6 | 85.3 | 54 (≈ 104 µM) | 17.9 ± 1.23 | 28.2 ± 1.27 | 30.9 ± 1.98 | 34.9 ± 1.72 | 78 to 80 | 35.1 | – | – | – |
